Laboratory results as given in ChEMBL document CHEMBL1148635, “Discovery, structure-activity relationship, and pharmacological evaluation of (5-substituted-pyrrolidinyl-2-carbonyl)-2-cyanopyrrolidines as potent dipeptidyl peptidase IV inhibitors” (J Med Chem, 2006).

Legend:
Prolyl endopeptidase = biological target: T1, Prolyl endopeptidase (Homo sapiens, UniProt P48147); experiment: Inhibition of POP by tight-binding assay
T1 sequence (P48147 whole entry): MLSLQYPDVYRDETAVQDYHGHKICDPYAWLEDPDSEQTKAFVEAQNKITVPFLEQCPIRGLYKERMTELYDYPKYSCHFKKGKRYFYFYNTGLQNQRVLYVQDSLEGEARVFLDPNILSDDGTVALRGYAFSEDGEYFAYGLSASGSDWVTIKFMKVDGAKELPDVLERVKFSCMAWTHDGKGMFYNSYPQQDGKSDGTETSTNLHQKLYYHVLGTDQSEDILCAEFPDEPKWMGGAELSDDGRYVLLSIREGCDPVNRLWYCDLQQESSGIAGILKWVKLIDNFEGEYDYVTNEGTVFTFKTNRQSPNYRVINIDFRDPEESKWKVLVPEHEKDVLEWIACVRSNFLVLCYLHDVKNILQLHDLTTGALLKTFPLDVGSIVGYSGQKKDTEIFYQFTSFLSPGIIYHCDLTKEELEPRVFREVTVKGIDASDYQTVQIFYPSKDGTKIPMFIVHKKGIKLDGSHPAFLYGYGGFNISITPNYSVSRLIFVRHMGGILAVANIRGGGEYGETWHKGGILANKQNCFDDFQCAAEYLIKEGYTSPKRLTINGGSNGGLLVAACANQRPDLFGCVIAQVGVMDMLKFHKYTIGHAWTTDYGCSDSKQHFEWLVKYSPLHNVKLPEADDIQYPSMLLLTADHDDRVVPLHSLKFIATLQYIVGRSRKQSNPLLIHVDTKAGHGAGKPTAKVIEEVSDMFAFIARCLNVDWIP

[1] = Volume of distribution in Sprague-Dawley rat at 5 mg/kg; assay type: ADME, organism-based; parameters: dose 5 mg/kg; conditions: in vivo, read-out: Vdss
Dipeptidyl peptidase 2 = Dipeptidyl peptidase 2 (Homo sapiens, UniProt Q9UHL4); experiment: Inhibition of DPP7 by tight-binding assay
[2] = Cmax in Sprague-Dawley rat at 5 mg/kg, po; assay type: ADME, organism-based; parameters: dose 5 mg/kg, route oral; conditions: in vivo
[3] = Plasma clearance in Sprague-Dawley rat at 5 mg/kg, iv; assay type: ADME, organism-based; parameters: dose 5 mg/kg, route intravenous
[4] = Oral bioavailability in Sprague-Dawley rat at 5 mg/kg; assay type: ADME, organism-based; conditions: in vivo
[5] = Half life in Sprague-Dawley rat at 5 mg/kg, po; assay type: ADME, organism-based; parameters: dose 5 mg/kg, route oral; conditions: in vivo
Rattus norvegicus [6] = experiment: AUC in Sprague-Dawley rat at 5 mg/kg, po; assay type: ADME, organism-based, Plasma; parameters: dose 5 mg/kg, route oral; conditions: in vivo
[7] = Half life in phosphate buffer at pH 7.4 at 37 degreeC; assay type: ADME
Rattus norvegicus [8] = experiment: Lowering of blood glucose level in ZDF rat at 1 mg/kg, po by oral glucose tolerance test; assay type: functional
Rattus norvegicus [9] = experiment: Lowering of blood glucose level in ZDF rat at 0.1 mg/kg, po by oral glucose tolerance test; assay type: functional
Rattus norvegicus [10] = experiment: Lowering of blood glucose level in ZDF rat at 3 mg/kg, po by oral glucose tolerance test; assay type: functional
Dipeptidyl peptidase 4 [11] = biological target: T2, Dipeptidyl peptidase 4 (Homo sapiens, UniProt P27487); experiment: Inhibition of human recombinant DPP4 by tight-binding assay
Dipeptidyl peptidase 4 [12] = biological target: T2, Dipeptidyl peptidase 4; experiment: Inhibition of human recombinant DPP4 by tight-binding assay in presence of 10% rat plasma; assay type: cell-free
Dipeptidyl peptidase 4 [13] = biological target: T2, Dipeptidyl peptidase 4; experiment: Inhibition of human recombinant DPP4

T2 sequence (P27487 whole entry): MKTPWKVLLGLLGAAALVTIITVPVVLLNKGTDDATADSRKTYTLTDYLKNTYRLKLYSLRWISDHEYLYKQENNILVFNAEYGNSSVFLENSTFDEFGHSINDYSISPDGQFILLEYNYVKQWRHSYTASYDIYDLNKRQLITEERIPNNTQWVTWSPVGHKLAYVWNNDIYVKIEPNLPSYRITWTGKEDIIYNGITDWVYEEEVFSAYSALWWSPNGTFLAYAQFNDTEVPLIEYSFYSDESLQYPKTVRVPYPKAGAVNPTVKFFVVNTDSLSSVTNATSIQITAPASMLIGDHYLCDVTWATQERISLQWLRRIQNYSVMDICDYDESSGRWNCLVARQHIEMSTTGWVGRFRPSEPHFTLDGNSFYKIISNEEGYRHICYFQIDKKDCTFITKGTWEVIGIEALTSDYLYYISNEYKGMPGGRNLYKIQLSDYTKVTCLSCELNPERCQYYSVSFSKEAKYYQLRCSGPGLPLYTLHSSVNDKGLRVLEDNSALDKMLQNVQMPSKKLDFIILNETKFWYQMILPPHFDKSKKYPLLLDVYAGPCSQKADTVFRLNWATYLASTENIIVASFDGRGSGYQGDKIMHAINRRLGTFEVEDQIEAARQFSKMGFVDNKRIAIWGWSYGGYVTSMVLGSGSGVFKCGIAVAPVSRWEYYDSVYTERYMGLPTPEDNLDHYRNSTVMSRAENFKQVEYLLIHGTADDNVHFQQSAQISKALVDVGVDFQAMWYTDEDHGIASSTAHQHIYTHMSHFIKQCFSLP

Vd [1]	Cmax [2]	clearance [3]	bioavailability [4]	half-life [5]	AUC (Rattus norvegicus [6])	half-life [7]	SMILES	also measured
						19.8 h	N#C[C@@H]1CCCN1C(=O)[C@@H]1CC[C@H](COc2ccc(C(=O)O)cc2Cl)N1	Ki (Prolyl endopeptidase): 1740 nM
1 L/kg	5580 ng/mL	5.33 mL/min/kg	63%	4.2 h	9630 ng·h/mL	65.4 h	CC(C)(C)c1cc(C(=O)O)ccc1OC[C@H]1CC[C@@H](C(=O)N2CCC[C@H]2C#N)N1	
0.73 L/kg	2470 ng/mL	7 mL/min/kg	34%	3.5 h	4110 ng·h/mL		CC(C)c1cc(C(=O)O)ccc1OC[C@H]1CC[C@@H](C(=O)N2CCC[C@H]2C#N)N1	Ki (Dipeptidyl peptidase 2): > 3000 nM; Activity (Rattus norvegicus [8]): 17%; Activity (Rattus norvegicus [9]): 3%; Activity (Rattus norvegicus [10]): 30%
						7.8 h	N#C[C@@H]1CCCN1C(=O)[C@@H]1CC[C@H](COc2ccc(Br)cc2)N1	
0.22 L/kg	805 ng/mL	3.83 mL/min/kg	13.5%	3.6 h	2990 ng·h/mL		N#C[C@@H]1CCCN1C(=O)[C@@H]1CC[C@H](COc2cc([N+](=O)[O-])c(Cl)cc2Cl)N1	
0.3 L/kg	3730 ng/mL	14 mL/min/kg	40%	2.2 h	2920 ng·h/mL		CS(=O)(=O)c1ccc(OC[C@H]2CC[C@@H](C(=O)N3CCC[C@H]3C#N)N2)c(Br)c1	
0.35 L/kg	146 ng/mL	4.83 mL/min/kg	7%	6.9 h	1280 ng·h/mL	> 100 h	N#C[C@@H]1CCCN1C(=O)[C@@H]1CC[C@H](COc2cc(C(=O)O)ccc2Cl)N1 (mixture of isomers)	Ki (Dipeptidyl peptidase 2): > 3000 nM
0.2 L/kg	4540 ng/mL	10.5 mL/min/kg	39%	1.5 h	3140 ng·h/mL	16.7 h	N#Cc1ccc(OC[C@H]2CC[C@@H](C(=O)N3CCC[C@H]3C#N)N2)c(Cl)c1	
1.14 L/kg	25.2 ng/mL	85 mL/min/kg	3%	1.3 h	28 ng·h/mL	41.2 h	CC(C)(C)c1ccccc1OC[C@H]1CC[C@@H](C(=O)N2CCC[C@H]2C#N)N1	

The next lines start with the molecule.

SMILES	Vd [1]	Cmax [2]	clearance [3]	bioavailability [4]	half-life [5]	AUC (Rattus norvegicus [6])	half-life [7]	also measured
N#C[C@@H]1CCCN1C(=O)[C@@H]1CC[C@H](COc2ccccc2Cl)N1								Ki (Prolyl endopeptidase): 2760 nM
N#C[C@@H]1CCCN1C(=O)[C@@H]1CC[C@H](COc2cc(C(=O)O)cnc2Cl)N1	0.35 L/kg	29 ng/mL	16 mL/min/kg	2%	1.2 h	87 ng·h/mL		Ki (Dipeptidyl peptidase 2): > 3000 nM; Ki (Prolyl endopeptidase): 666 nM
CC(C)[C@H]1CC[C@@H](C(=O)N2CCC[C@H]2C#N)N1 (mixture of isomers)							> 100 h	
N#C[C@@H]1CCCN1C(=O)[C@@H]1CCCN1							1.3 h	
C[C@H]1CC[C@@H](C(=O)N2CCC[C@H]2C#N)N1	13.5 L/kg	752 ng/mL	74.8 mL/min/kg	58%	1.1 h	652 ng·h/mL	6.5 h	
N#C[C@@H]1CCCN1C(=O)[C@@H]1CC[C@H](COc2cc(C(=O)O)c[n+]([O-])c2Cl)N1								Ki (Dipeptidyl peptidase 2): > 3000 nM; Ki (Prolyl endopeptidase): 1530 nM
N#C[C@@H]1CCCN1C(=O)[C@@H]1CC[C@H](COc2ccc3ccccc3c2)N1							10.8 h	
CC[C@H]1CC[C@@H](C(=O)N2CCC[C@H]2C#N)N1							16.4 h	
N#C[C@@H]1CCCN1C(=O)[C@@H]1CC[C@H](COc2ccccc2Cc2ccccc2)N1								Ki (Dipeptidyl peptidase 4 [11]): Not Active; Ki (Dipeptidyl peptidase 4 [12]): Not Active; Ki (Dipeptidyl peptidase 4 [13]): > 3000 nM
